Experimental data reported in patent US20050272677A1, “Delivery of a substance to a pre-determined site” (priority 2002, published 2005).
Substitutions are numbered along the chain they refer to. Numbers in names are those of the source.

B1: E06/G22S (protein, UniProt P0A742 1-136, looked up, variant E6H G22S)
Large-conductance …: MSIIKHFREFAMRGNVVDLAVSVIIGAAFGKIVSSLVADIIMPPLGLLIGGIDFKQFAVTLRDAQGDIPAVVMHYGVFIQNVFDFLIVAFAIFMAIKLINKLNRKKEEPAAAPAPTKEEVLLTEIRDLLKEQNNRS
B2: A11H/G22S (protein, UniProt P0A742 1-136, looked up, variant A11H G22S)
Large-conductance …: B1 Large-conductance … with H6E, A11H
B3: R13H (protein, UniProt P0A742 1-136, looked up, variant R13H)
Large-conductance …: B1 Large-conductance … with H6E, R13H, S22G
B4: A11H (protein, UniProt P0A742 1-136, looked up, variant A11H)
Large-conductance …: B1 Large-conductance … with H6E, A11H, S22G
B5: F10H/G22S (protein, UniProt P0A742 1-136, looked up, variant F10H G22S)
Large-conductance …: B1 Large-conductance … with H6E, F10H
B6: F10H (protein, UniProt P0A742 1-136, looked up, variant F10H)
Large-conductance …: B1 Large-conductance … with H6E, F10H, S22G
B7: M12H (protein, UniProt P0A742 1-136, looked up, variant M12H)
Large-conductance …: B1 Large-conductance … with H6E, M12H, S22G
B8: M12H/G22S (protein, UniProt P0A742 1-136, looked up, variant M12H G22S)
Large-conductance …: B1 Large-conductance … with H6E, M12H
B9: R13H/G22S (protein, UniProt P0A742 1-136, looked up, variant R13H G22S)
Large-conductance …: B1 Large-conductance … with H6E, R13H

Experiments:
[1] = Gelation experiment (gel formation in solvents); format: physicochemical; design: key to Gelation properties: g = gel; i = insoluble; p = precipitate; sol = soluble
Protocol: To obtain a gel or to thicken the solvent, the compound is mixed with the required solvent or a mixture of solvents in an amount between 0.01 and 50 wt. %, based on the weight of the composition. Typically, the dissolution of the components will be performed by heating (in some cases it may be helpful to homogenize the components, e.g., vortex) them together at temperatures of 20° C. to 200° C., preferably 50° C. to 150° C. Cooling these hot solutions to a preferred temperature in the range of −20° C. to 100° C., preferably 4° C. to 100° C. affords the gel or thickened solvent. […] In an alternative embodiment, the gelling agent is first dissolved in a polar or apolar solvent followed by the addition of another solvent or solvent mixture, thereby causing gelation to take place.
It will be understood that the use of the present gelling agents or thickeners to prepare a gel or to thicken a composition is also encompassed by the invention. As is well-known, gelling behavior of compounds or compositions is highly unpredictable. […] Preferably, the gelling phenomenon is thermoreversible.
In a typical gelation experiment, a carefully weighed amount of the dithienylcyclopentene derivative under investigation and 1 ml of the solvent are placed in a test tube, which is sealed and then heated until the compound is dissolved. The solution is allowed to cool to room temperature. […] The gelation process could be followed by UV-vis and CD spectroscopy as depicted in FIG. 58. At low concentrations (0.35 mM), compound D is dissolved in toluene. […] Increasing the concentration to 1.8 mM causes gelation of the solvent, which is accompanied by a change of the UV-visible spectrum, together with the appearance of a strong CD signal at 323 nm (FIG. 58, panels (a) and (c)). Similar changes in the UV-vis and CD spectrum are observed upon gelation of the 1.8 mM solution of D in toluene by cooling to a temperature below the sol-gel phase transition (from here on, referred to as gel(o)). From a plot of the increase of the CD signal versus the temperature, the sol-gel phase transition temperature of gel(o) was determined to be 29° C. for a 1.8 mM solution of D in toluene.

[2] = Gelation in the presence of surfactants and polymeric micelles; format: physicochemical; design: key: G = gel; C = crystalline; G^a: ^a= not stable
[3] = system: pB104 strain (MscL null E. coli); test: Growth assay of MscL mutants on agar plates with or without IPTG; format: cell-based; design: key: ++++: growth equal to cells expressing wild-type MscL; growth is indicated by ++++ to −; growth is indicated by ++++ to −; growth is indicated by ++++ to −; −: an absence of growth; details: pB104 with Lac-inducible plasmid; for Growth on agar plates +IPTG: with IPTG; for Growth on agar plates −IPTG: without IPTG
Protocol: The constructs of the MscL-6His mutants were constructed using standard molecular biology techniques. The mutants were tested in the pB104 strain (MscL null E. coli) by a growth assay on agar plates with or without IPTG (K. Yoshimura et al., 1999, Biophys. J. 77:1960-1972).
The first phenotype (++) grows like the single G22S mutant.

Molecule	solvents gelated [1]	Growth on agar plates +IPTG [3]	Growth on agar plates −IPTG [3]	also measured
O=C(O)C(Cc1ccccc1)NC(=O)[C@H]1C[C@@H](C(=O)NC(Cc2ccccc2)C(=O)O)C[C@@H](C(=O)NC(Cc2ccccc2)C(=O)O)C1 (mixture of isomers) [10a, CHexAmPheOH (mixture of isomers)]	water			
O=C(NC(Cc1ccccc1)C(=O)O)C1CC(C(=O)NC(Cc2ccccc2)C(=O)O)CC(C(=O)NC(Cc2ccccc2)C(=O)O)C1 (single isomer, unassigned) [LLL diasteroisomer, CHexAmPheOH]	only gelates lower alcohols			
O=C(N[C@@H](Cc1ccccc1)C(=O)O)[C@H]1C[C@@H](C(=O)N[C@H](Cc2ccccc2)C(=O)O)C[C@@H](C(=O)N[C@H](Cc2ccccc2)C(=O)O)C1 [10b, CHexAmPheOH (DDL)]	water			
CC(C)[C@H](NC(=O)[C@H]1C[C@@H](C(=O)N[C@H](C(=O)O)C(C)C)C[C@@H](C(=O)N[C@H](C(=O)O)C(C)C)C1)C(=O)O [CHex-Am-Val-OH]	water			
Cc1sc(C(=O)Nc2ccccc2)cc1C1=C(c2cc(C(=O)Nc3ccccc3)sc2C)CCC1 [Compound C, 1,2-Bis(5′-(anilinocarbonyl)-2′-methyl-thien-3′-yl) cyclopentene]	1-phenyloctane, toluene, n-butylether, benzene, tetralin			
Cc1sc(C(=O)N[C@H](C)C2CCCCC2)cc1C1=C(c2cc(C(=O)N[C@H](C)C3CCCCC3)sc2C)CCC1 [Compound E, 1,2-Bis(2′-methyl-5′-{(((R)-1-cyclohexylethyl)amino)carbonyl}thien-3′-yl)cyclopentene]	hexadecane, cyclohexane, 1-phenyloctane, toluene, n-butylether, benzene, tetralin, 1,4-dioxane, and n-butyl acetate			
O=C(OCCO)[C@H](Cc1ccccc1)NC(=O)[C@H]1C[C@@H](C(=O)N[C@@H](Cc2ccccc2)C(=O)OCCO)C[C@@H](C(=O)N[C@@H](Cc2ccccc2)C(=O)OCCO)C1 [gelator 2, CHexAmPheOCH2CH2OH]	water and lower alcohols			Gelation properties ([2]; Nonionic (Lactose der.) < CMC): G^a; Gelation properties ([2]; Nonionic (Lactose der.) > CMC): G^a; Gelation properties ([2]; Pluronic P 105, 5 mg · ml^−1): g^a; Gelation properties ([2]; Pluronic P 105, 100 mg · ml^−1): g^a; Gelation properties ([2]; anionic (SDS) < CMC): G^a; Gelation properties ([2]; anionic (SDS) > CMC): G^a; Gelation properties ([2]; cationic (CTAB) < CMC): G^a; Gelation properties ([2]; cationic (CTAB) > CMC): G^a
COC(=O)CC[C@H](NC(=O)[C@H]1C[C@@H](C(=O)N[C@@H](CCC(=O)OC)C(=O)OC)C[C@@H](C(=O)N[C@@H](CCC(=O)OC)C(=O)OC)C1)C(=O)OC [gelator 7, CHexAmGluOMe]	both organic solvents and water			
COC(=O)C[C@H](NC(=O)[C@H]1C[C@@H](C(=O)N[C@@H](CC(=O)OC)C(=O)OC)C[C@@H](C(=O)N[C@@H](CC(=O)OC)C(=O)OC)C1)C(=O)OC [gelator 8, CHexAmAspOMe]	both organic solvents and water			
CC(NC(=O)[C@H](Cc1ccccc1)NC(=O)[C@H]1C[C@@H](C(=O)N[C@@H](Cc2ccccc2)C(=O)N[C@H](C)C(=O)O)C[C@@H](C(=O)N[C@@H](Cc2ccccc2)C(=O)N[C@H](C)C(=O)O)C1)C(=O)O (stereo partly shown) [gelator 11, CHexAm(L)Phe(D)AlaOH]	water and lower alcohols			
O=C(O)CCNC(=O)[C@H](Cc1ccccc1)NC(=O)[C@H]1C[C@@H](C(=O)N[C@@H](Cc2ccccc2)C(=O)NCCC(=O)O)C[C@@H](C(=O)N[C@@H](Cc2ccccc2)C(=O)NCCC(=O)O)C1 [gelator 12, cHexAm(L)Phe(β)AlaOH]	water			
COC(=O)[C@H](Cc1c[nH]cn1)NC(=O)[C@H](CCSC)NC(=O)[C@@H]1C[C@H](C(=O)NC(CCSC)C(=O)N[C@H](Cc2c[nH]cn2)C(=O)OC)C[C@H](C(=O)N[C@@H](CCSC)C(=O)N[C@@H](Cc2c[nH]cn2)C(=O)OC)C1 (stereo partly shown) [gelator 14, CHexAmMetHisOMe]	water			
(1S,2S) CHex-bisurea dihexylamine [5a]				Gelation properties ([1]; 1 N NaHCO3): i; Gelation properties ([1]; 1 N NaOH): i; Gelation properties ([1]; 25% Ammonia): g; Gelation properties ([1]; buffer PH 5.7): sol; Gelation properties ([1]; buffer PH 7.2): p; Gelation properties ([1]; buffer PH 7.9): g; Gelation properties ([1]; water): g
CHex-Am-Met-Am-Borate	water and lower alcohols			
CHex-Am-Met-Am-EtOH	water			
CHex-Am-Phe-Am-Borate	water and lower alcohols			
CHex-Am-Ser(Bzl)-Am-Borate	water and lower alcohols			
CHexAmPheAmGluOH [gelator 13]	water			
racemic CHex-bisurea dihexylamine [5b]				Gelation properties ([1]; 1 N NaHCO3): sol; Gelation properties ([1]; 1 N NaOH): g; Gelation properties ([1]; 25% Ammonia): g; Gelation properties ([1]; buffer PH 5.7): sol; Gelation properties ([1]; buffer PH 6.3): sol; Gelation properties ([1]; buffer PH 7.2): g; Gelation properties ([1]; buffer PH 7.9): g; Gelation properties ([1]; water): g
B1		+++	++++	
B2		++	++++	
B3		+++	++++	
B4		++++	++++	
B5		+	++++	
B6		++++	++++	
B7		++++	++++	
B8		++	++++	
B9		−	++++	
